Data as given in patent US20050233405A1, “Inhibitors of caspase-3-mediated cleavage of essential ventricular myosin light chain” (ProCorde GmbH, priority 2002, published 2005).
*: point of attachment. pNA = O=[N+]([O-])c1ccc(N*)cc1; AMC = Cc1cc(=O)oc2cc(N*)ccc12

What was measured:
[1] = molecular target: T1, caspase-3 (Homo sapiens, UniProt P42574); conditions: chromogenic peptide substrates; J Biol Chem. 1997 Apr 11; 272(15):9677-82; cited from earlier work
T1 sequence (P42574 29-175 limits assumed): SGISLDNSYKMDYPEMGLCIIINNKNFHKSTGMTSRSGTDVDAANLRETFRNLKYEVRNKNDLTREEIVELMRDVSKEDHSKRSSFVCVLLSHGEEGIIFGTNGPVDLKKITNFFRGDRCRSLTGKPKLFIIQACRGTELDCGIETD
T1 sequence (P42574 176-277 limits assumed): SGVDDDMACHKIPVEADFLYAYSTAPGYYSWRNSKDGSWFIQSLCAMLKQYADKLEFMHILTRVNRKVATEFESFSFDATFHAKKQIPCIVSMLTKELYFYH

[2] = molecular target: T2, caspase-7 (Homo sapiens, UniProt P55210); assay: Fluorimetric peptide substrate cleavage assay, caspase-7; format: biochemical; conditions: for cleavage of peptide substrate by caspase-7: fluorimetric in vitro assay
T2 sequence (P55210 24-198 limits assumed): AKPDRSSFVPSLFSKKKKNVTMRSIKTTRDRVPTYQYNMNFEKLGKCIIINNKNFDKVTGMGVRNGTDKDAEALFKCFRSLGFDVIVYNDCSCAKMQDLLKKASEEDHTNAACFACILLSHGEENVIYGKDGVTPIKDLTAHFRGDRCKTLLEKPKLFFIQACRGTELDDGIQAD
T2 sequence (P55210 207-303 limits assumed): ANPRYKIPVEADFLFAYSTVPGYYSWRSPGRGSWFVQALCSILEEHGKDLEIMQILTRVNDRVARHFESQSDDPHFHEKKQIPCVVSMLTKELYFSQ
Excerpt: (§1) FIG. 8: Effect of different proteases—other caspases and calpain—on cleavage of the peptide substrate Ac-DFVE-AMC. The 1/KM-value for caspase-3 was normalized to 1, and 1/KM-values of other caspases/proteases are shown in relation to that value. […] The functional proteolytic activity of all proteases used was confirmed with the typical peptide substrate of each protease.
To this end, fluorimetric in vitro assays using the specific cleavage sites coupled to indicator dyes were established. Caspase-3 and the structurally almost identical caspase-7 (Wei et al., 2000) cleaved both substrates, DEVD and DFVE, with a highly reproducible Michaelis-Menten kinetic. […] We measured a KM-value for DEVD which compared well to existing literature data (Table 1), whereas the KM-value for DFVE was in the range of some other rare substrates of caspase-3 (Table 1). This differential substrate affinity allows to screen for specific inhibitors of vMLC1 cleavage, which would, however, not affect the cleavage of most other known substrates of caspase-3 and 7.
(§2) As p35 inhibits all effector caspases (subtypes 1,3,6,7,8 and 10; e.g., Zhou et al., Biochemistry 1998; 37:10757), our concern was whether the observed beneficial effects of p35 in heart failure were really due to inhibition of caspase-3 and of the structurally almost identical caspase-7. Especially, we sought to exclude that the decrease in vMLC1 cleavage in the presence of p35 was due to predominant inhibition of a different caspase, and to exclude that the cleavage of vMLC1 was induced by caspase-3 only indirectly acting via other effector caspases. Therefore, we tested all these enzymes for their capacity to cleave Ac-DFVE-AMC. […] However, the highly homologous caspase-7 cleaved the new substrate DFVE with almost 1 log scale lower affinity compared to caspase-3.

[3] = molecular target: T3, recombinant human caspase-3 (CPP32) (Homo sapiens, UniProt P42574); assay: Fluorimetric peptide substrate cleavage assay, caspase-3; format: biochemical; conditions: fluorimetric in vitro assay
T3 construct: purified, active recombinant human caspase-3 (CPP32); purchased BD Biosciences Pharmingen, Heidelberg, Germany
T3 sequence (P42574 29-175 limits assumed): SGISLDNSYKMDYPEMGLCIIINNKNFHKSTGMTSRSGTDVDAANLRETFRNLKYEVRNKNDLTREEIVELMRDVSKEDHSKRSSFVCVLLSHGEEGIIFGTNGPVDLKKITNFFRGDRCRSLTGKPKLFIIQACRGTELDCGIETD
T3 sequence (P42574 176-277 limits assumed): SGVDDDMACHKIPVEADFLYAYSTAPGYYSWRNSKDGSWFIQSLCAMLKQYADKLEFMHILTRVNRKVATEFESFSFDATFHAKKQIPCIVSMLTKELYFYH
Protocol: The rate of caspase-3 enzyme activity could be measured by enzymatic cleavage and release of AMC from the Ac-DEVD-AMC caspase substrate (Biosyntan, Berlin, Germany). This parameter was measured as emission at 460 nm upon excitation at 380 nm using U.V. spectrofluorometry.
Ac-DFVE-AMC was synthesized by Biosyntan, Berlin, Germany, with a purity of 93.5%. The peptide lyophilised as trifluoracetic acid salt was reconstituted in DMSO to 100 mM. 5 μg of purified, active recombinant human caspase-3 (CPP32) from BD Biosciences Pharmingen, Heidelberg, Germany, were diluted in 100 μl 50 mM Tris, pH 8.0, with 100 mM NaCl, 50 mM imidazole.
The reaction buffer contained 20 mM HEPES, 100 mM NaCl, 10 mM DTT, 1 mM EDTA, 0.1 % (w/v) CHAPS, 10% sucrose, pH 7.2 and the indicated concentrations of Ac-DFVE-AMC. Caspase-3 was added to reaction mixture at a final concentration of 3 nM.
After preincubation for 10 min at 37° C., the released fluorogenic AMC was monitored every second minute for 20 min in a spectrofluorometer at an excitation wavelength of 380 nm and an emission wavelength of 460 nm.
Initial velocities and substrate concentrations were fit by non linear regression to the Michaelis-Menten equation. Lineweaver-Burk plots were calculated.

[4] = molecular target: T4, calpain-I (Homo sapiens, UniProt P07384); assay: Ac-DFVE-AMC cleavage by calpain-I; format: biochemical; conditions: physiological substrate concentrations
T4 sequence (P07384 1-714): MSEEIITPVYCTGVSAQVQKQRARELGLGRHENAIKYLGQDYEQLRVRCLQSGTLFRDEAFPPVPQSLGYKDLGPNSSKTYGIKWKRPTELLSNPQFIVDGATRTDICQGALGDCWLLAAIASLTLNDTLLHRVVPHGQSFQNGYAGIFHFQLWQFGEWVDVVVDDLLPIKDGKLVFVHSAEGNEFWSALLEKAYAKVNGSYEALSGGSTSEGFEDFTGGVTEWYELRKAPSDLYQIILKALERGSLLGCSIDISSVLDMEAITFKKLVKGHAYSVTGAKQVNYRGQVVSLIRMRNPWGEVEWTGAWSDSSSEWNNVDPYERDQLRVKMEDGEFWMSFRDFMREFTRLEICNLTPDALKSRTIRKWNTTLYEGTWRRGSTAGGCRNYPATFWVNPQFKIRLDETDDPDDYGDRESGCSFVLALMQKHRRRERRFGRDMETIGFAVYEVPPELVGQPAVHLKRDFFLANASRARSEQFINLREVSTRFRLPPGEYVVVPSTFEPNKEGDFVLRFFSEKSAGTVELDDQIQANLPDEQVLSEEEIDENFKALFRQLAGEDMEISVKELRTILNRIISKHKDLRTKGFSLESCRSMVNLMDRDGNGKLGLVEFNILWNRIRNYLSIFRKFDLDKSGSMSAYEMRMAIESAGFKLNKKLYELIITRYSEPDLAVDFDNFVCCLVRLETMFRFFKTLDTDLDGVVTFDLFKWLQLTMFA
T4 sequence (P04632 1-268 partner): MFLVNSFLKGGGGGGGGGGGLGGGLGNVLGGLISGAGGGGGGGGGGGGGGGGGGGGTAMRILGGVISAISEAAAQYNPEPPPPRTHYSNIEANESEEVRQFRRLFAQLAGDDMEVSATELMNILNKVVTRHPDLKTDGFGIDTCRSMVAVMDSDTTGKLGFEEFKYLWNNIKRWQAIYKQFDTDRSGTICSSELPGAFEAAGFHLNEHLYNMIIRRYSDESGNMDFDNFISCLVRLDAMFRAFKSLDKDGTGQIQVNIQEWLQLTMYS
Excerpt: as §1, §2

[5] = system: other caspases; assay: Ac-DFVE-AMC cleavage by other caspases; format: biochemical; conditions: physiological substrate concentrations
Excerpt: as §1, §2

[6] = system: caspase-3 activation in failing myocardium; conditions: rabbit CHF, rapid ventricular pacing; Laugwitz et al., 2001; cited from earlier work

In the case of Ac-VDVAD-pNA, the Km [1] is given as 67 µM.

For Ac-DEVD-AMC, the “cleavage of peptide substrate by caspase-7” value [2] was “cleaved” and the “cleavage of peptide substrate by caspase-3” value [3] was “cleaved”.

In the case of Ac-DEVD-pNA, the Km [1] is given as 11 µM.

For Ac-VEID-pNA, the Km [1] is listed as 250 µM.

For Ac-VQVD-pNA, the Km [1] is given as 510 µM.

In the case of Ac-YEVD-pNA, the Km [1] is given as 370 µM.

For Ac-DQMD-pNA, the Km [1] is listed as 44 µM.

In the case of Ac-DFVE-{AMC}, the “cleavage of substrate by calpain-I” value [4] is reported as “no cleavage was detectable”, the “cleavage of substrate by other caspases” value [5] is reported as “no cleavage was detectable” and the “cleavage of peptide substrate by caspase-7” value [2] is reported as “can specifically cleave”. The “affinity of caspase-7 for the substrate, lower compared to caspase-3” value ([2]; relative to caspase-3) was roughly 1 log scale and the “cleavage of peptide substrate by caspase-3” value [3] was “can specifically cleave”.

B1: p35: potent caspase inhibitor p35, given by adenovirus-mediated gene delivery (protein, UniProt P08160 1-299, looked up)
Early 35 kDa protein: MCVIFPVEIDVSQTIIRDCQVDKQTRELVYINKIMNTQLTKPVLMMFNISGPIRSVTRKNNNLRDRIKSKVDEQFDQLERDYSDQMDGFHDSIKYFKDEHYSVSCQNGSVLKSKFAKILKSHDYTDKKSIEAYEKYCLPKLVDERNDYYVAVCVLKPGFENGSNQVLSFEYNPIGNKVIVPFAHEINDTGLYEYDVVAYVDSVQFDGEQFEEFVQSLILPSSFKNSEKVLYYNEASKNKSMIYKALEFTTESSWGKSEKYNWKIFCNGFIYDKKSKVLYVKLHNVTSALNKNVILNTIK
modifications: adenovirus-delivered
For B1, the “effect of in vivo transcoronary gene delivery in failing myocardium” value [6] is given as “positive impact on sarcomeric organization and contractile performance”.
